# Laboratory results taken from PubChem BioAssay (NCI).
#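 Cultured in 96-well plates, cells were exposed to test compound for 48 hours across five concentrations. The concentration for 50% growth inhibition is given as GI50. TGI denotes the concentration required for complete inhibition of growth.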
# Columns and labels:
# Test in all cases: NCI tumour cell line growth inhibition, 48 h
# M14 melanoma = test system: M14 melanoma
# BT-549 breast = test system: BT-549 breast
# HCT-116 colon = test system: HCT-116 colon
# SK-OV-3 ovarian = test system: SK-OV-3 ovarian
# MOLT-4 leukemia = test system: MOLT-4 leukemia
# OVCAR-5 ovarian = test system: OVCAR-5 ovarian
# CCRF-CEM leukemia = test system: CCRF-CEM leukemia
# A549 NSCLC = test system: A549 NSCLC
# KM12 colon = test system: KM12 colon
# K-562 leukemia = test system: K-562 leukemia
Structure (SMILES),GI50 (M14 melanoma) [µM],TGI (M14 melanoma) [µM],GI50 (BT-549 breast) [µM],TGI (BT-549 breast) [µM],GI50 (HCT-116 colon) [µM],TGI (HCT-116 colon) [µM],GI50 (SK-OV-3 ovarian) [µM],TGI (SK-OV-3 ovarian) [µM],GI50 (MOLT-4 leukemia) [µM],TGI (MOLT-4 leukemia) [µM],GI50 (OVCAR-5 ovarian) [µM],TGI (OVCAR-5 ovarian) [µM],GI50 (CCRF-CEM leukemia) [µM],TGI (CCRF-CEM leukemia) [µM],GI50 (A549 NSCLC) [µM],TGI (A549 NSCLC) [µM],GI50 (KM12 colon) [µM],TGI (KM12 colon) [µM],GI50 (K-562 leukemia) [µM],TGI (K-562 leukemia) [µM]
COc1ccc(OC)c(/C=C/c2nc(=S)n(-c3ccc(Cl)cc3)[nH]2)c1,4.24,> 100,9.38,> 100,4.05,> 100,9.4,> 100,7.74,> 100,70.3,> 100,4.77,> 100,9.07,> 100,4.03,> 100,4.95,> 100
COc1cc2c(N3CCN(C(=O)Nc4ccc(OC(C)C)cc4)CC3)ncnc2cc1OCCCN1CCCCC1,16.2,32.6,13.4,29.3,14,57.3,18.4,39.9,12.8,61.2,26.8,> 90.1,18.3,> 79.3,17.1,> 93.7,3.22,29.8,4.98,> 100
C[C@]12CC[C@H]3[C@@H](CCC4=CC(=O)CC[C@@]43C)[C@@H]1CC[C@@H]2c1csc(N)n1,5.16,21.4,6.12,21.3,3.15,15.3,12.5,33.3,2.5,11.2,15,38.7,4.49,49,5.77,31.6,3,11.6,2.33,> 100
CN(C)CCCC1(c2ccc(F)cc2)OCc2cc(-c3cccc4[nH]ccc34)ccc21 (stereo not given),1.66,3.33,1.87,3.54,1.37,2.82,1.75,3.25,1.49,3.22,1.71,3.27,1.65,3.95,1.6,3.07,1.74,3.27,1.4,3.32
COc1ccc2sc3c(NCCCN)nc4ccccc4c3c(=O)c2c1,1.74,3.18,1.69,3.55,1.5,2.85,1.61,3.66,1.48,3.17,1.68,3.28,1.79,3.66,1.64,3.39,1.82,3.36,1.11,3.4
CCn1c2c(c3ccccc3c1=O)C(=O)c1ccccc1-2,–,> 100,–,> 100,–,> 100,–,> 100,–,> 100,–,> 100,–,> 100,–,> 100,–,> 100,–,> 100
O=C1c2cccc(Oc3ccccc3)c2C(=O)c2cccc(Oc3ccccc3)c21,> 100,> 100,22.9,> 100,> 100,> 100,9.39,> 100,> 100,> 100,> 100,> 100,7.14,30.3,> 100,> 100,> 100,> 100,> 100,> 100
O=C1C=C[C@H](O)[C@@]2(CO)O[C@@H]12,15.2,29,12.4,25.5,1.79,3.33,28.4,> 96.1,2.99,16.5,15.6,29,2.7,12.3,23.7,> 60.1,12.1,24.5,3.35,> 75.5
COc1ccc2c(N)ncc(C#Cc3cc(C(=O)Nc4ccc(CN5CCN(C)CC5)c(C(F)(F)F)c4)cnc3C)c2c1,0.225,0.934,6.02,14.9,0.483,1.05,1.7,15,0.396,1.67,1.33,3.78,0.841,4.13,0.576,1.28,0.079,2.64,0.00868,1.02
Cc1ccc2c(-c3ccnc(Nc4ccc5c(c4)OCCO5)n3)c(-c3ccc(C(F)(F)F)cc3)nn2n1,3.58,9.43,4.45,> 25,7.32,> 25,3.8,> 25,6.89,> 25,6,> 25,11.7,> 25,13.3,> 25,14.1,> 25,20.3,> 25
